This passage reports IC50 results from ChEMBL document CHEMBL5725537, “Pyrazolo-pyrrolidin-4-one derivatives and their use in the treatment of disease” (2017).

For one assay, the target named is CREB-binding protein (Homo sapiens, UniProt Q92793). Kind of assay: AlphaScreen In-Vitro Binding Assay for CREBBP: In order to assess bromodomain selectivity, we set up a binding assay using the bromodomain encoded by the CREBBP gene. […] Reactions were incubated at 30° C. for 35 minutes. Subsequently 4.5 μl per well detection mix (50 mM HEPES, pH 7.5, 0.005% Tween20, 0.02% BSA, 150 mM NaCl, 45 μg/ml Ni-chelate acceptor beads, 45 μg/ml streptavidin-donor beads) (Perkin Elmer)) were added. After 60 minutes incubation at room temperature, plates were measured in a Perkin Elmer EnVision multilabel reader. IC50 values were determined from percent inhibition values at different compound concentrations by non-linear regression analysis. On the technique in general: Bead proximity is the source of the signal in Alpha formats.

In assay [1] the target is Bromodomain-containing protein 2 (Homo sapiens, UniProt P25440). As to the kind of experiment: (§1) TR-FRET In-Vitro Binding Assays for BRD2, BRD3, and BRD4: All assays were performed in 384 well microtiter plates. Each assay plate contained 8-point serial dilutions for 40 test compounds, plus 16 high- and 16 low controls. Liquid handling and incubation steps were done on an Innovadyne Nanodrop Express equipped with a robotic arm (Thermo CatX, Perkin Elmer/Caliper Twister II) and an incubator (Liconic STX40, Thermo Cytomat 2C450). The assay plates were prepared by addition of 50 nl per well of compound solution in 90% DMSO HummingBird nanodispenser (Zinsser Analytic). The assay was started by stepwise addition of 4.5 μl per well of bromo domain protein (50 mM HEPES, pH 7.5, 0.005% Tween20, 0.1% BSA, 50 mM NaCl, 45 nM His-Brd2(60-472) or 45 nM His-Brd3(20-477) or 45 nM His-Brd4(44-477) all proteins produced in-house) and 4.5 μl per well of peptide solution (50 mM HEPES, pH 7.5, 0.005% Tween20, 0.1% BSA, 50 mM NaCl, 60 nM acetyl-histone H4 (AcK 5, 8, 12, 16) (Biosyntan GmbH)). Reactions were incubated at 30° C. for 35 minutes. Subsequently 4.5 μl per well detection mix (50 mM HEPES, pH 7.5, 0.005% Tween20, 0.1% BSA, 50 mM NaCl, 3 nM Eu-labeled anti-His6 antibody, 21 nM streptavidin-allophycocyanin) were added. After 35 minutes incubation at 30° C., plates were measured in a Perkin Elmer EnVision multilabel reader. Concentrations causing 50% inhibition (1050) values were determined from percent inhibition values at different compound concentrations by non-linear regression analysis. For orientation: In TR-FRET formats the signal depends on donor and acceptor labels being close together.

The target in assay [2] is Bromodomain-containing protein 4 (Homo sapiens, UniProt O60885). Described as §1.
Assay [3] deals with Bromodomain-containing protein 3 (Homo sapiens, UniProt Q15059). The description is as §1.

Molecules are shown by their SMILES.

Sequence of CREB-binding protein (Q92793 whole entry): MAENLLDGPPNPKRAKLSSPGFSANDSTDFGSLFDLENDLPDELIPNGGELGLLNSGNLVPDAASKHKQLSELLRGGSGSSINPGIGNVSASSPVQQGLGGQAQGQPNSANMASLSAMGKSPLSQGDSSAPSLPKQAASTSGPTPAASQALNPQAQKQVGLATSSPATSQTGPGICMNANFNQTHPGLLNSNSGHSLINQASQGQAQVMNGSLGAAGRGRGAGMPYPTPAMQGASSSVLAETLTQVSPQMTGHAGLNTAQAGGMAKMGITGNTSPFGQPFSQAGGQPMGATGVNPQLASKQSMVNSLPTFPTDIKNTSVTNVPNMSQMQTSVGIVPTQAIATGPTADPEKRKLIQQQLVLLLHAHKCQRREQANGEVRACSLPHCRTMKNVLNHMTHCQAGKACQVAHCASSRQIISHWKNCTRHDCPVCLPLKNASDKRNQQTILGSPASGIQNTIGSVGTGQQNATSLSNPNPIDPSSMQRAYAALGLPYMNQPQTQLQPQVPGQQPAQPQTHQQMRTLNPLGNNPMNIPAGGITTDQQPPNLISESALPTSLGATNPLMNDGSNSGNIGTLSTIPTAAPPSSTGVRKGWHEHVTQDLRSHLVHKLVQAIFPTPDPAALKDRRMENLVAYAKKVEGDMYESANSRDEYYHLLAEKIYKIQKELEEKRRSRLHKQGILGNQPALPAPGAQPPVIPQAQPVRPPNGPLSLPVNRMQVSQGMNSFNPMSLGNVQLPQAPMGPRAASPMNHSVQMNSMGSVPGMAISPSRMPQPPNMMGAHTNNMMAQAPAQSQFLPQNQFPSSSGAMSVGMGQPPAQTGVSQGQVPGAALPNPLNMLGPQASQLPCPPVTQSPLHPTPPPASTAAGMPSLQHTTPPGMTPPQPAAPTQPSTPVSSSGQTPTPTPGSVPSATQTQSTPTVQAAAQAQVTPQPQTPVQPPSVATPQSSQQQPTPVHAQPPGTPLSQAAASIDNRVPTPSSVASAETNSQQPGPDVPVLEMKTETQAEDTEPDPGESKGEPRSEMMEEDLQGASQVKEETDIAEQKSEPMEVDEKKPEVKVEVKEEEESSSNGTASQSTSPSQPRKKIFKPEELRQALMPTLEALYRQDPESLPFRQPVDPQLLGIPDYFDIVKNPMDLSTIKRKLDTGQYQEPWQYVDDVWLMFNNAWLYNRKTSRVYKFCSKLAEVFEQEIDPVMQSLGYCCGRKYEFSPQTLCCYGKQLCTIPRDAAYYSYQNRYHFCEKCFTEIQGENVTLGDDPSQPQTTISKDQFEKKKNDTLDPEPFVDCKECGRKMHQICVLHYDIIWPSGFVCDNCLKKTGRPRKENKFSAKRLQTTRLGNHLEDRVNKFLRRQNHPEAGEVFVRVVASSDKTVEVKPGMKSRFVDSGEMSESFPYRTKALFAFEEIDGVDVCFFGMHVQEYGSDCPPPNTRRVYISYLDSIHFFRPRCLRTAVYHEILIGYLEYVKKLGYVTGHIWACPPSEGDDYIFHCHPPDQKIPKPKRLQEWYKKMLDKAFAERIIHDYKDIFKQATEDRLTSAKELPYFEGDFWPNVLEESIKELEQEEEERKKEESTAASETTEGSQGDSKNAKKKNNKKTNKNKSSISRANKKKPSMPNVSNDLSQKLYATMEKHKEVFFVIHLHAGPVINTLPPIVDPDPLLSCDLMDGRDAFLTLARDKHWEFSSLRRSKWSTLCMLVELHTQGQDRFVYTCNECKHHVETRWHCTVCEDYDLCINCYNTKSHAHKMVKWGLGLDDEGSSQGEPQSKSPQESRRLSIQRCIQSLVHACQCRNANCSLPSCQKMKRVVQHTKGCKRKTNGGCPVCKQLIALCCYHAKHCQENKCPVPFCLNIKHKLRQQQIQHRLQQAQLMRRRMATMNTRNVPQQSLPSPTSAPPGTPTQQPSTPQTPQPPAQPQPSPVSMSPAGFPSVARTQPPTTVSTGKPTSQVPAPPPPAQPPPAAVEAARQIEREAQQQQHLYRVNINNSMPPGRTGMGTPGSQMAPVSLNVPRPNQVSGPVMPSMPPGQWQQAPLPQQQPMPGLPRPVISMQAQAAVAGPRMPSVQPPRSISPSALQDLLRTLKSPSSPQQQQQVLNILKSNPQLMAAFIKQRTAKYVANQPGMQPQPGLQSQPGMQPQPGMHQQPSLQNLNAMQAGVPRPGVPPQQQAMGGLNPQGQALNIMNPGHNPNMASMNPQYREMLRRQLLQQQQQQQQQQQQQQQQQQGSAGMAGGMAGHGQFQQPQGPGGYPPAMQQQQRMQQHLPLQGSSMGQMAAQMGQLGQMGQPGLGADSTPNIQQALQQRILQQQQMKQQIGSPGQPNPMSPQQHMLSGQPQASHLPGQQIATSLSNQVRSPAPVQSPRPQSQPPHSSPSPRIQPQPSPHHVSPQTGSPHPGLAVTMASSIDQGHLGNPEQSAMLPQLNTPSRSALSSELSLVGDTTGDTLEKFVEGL
Sequence of Bromodomain-containing protein 3 (Q15059 whole entry): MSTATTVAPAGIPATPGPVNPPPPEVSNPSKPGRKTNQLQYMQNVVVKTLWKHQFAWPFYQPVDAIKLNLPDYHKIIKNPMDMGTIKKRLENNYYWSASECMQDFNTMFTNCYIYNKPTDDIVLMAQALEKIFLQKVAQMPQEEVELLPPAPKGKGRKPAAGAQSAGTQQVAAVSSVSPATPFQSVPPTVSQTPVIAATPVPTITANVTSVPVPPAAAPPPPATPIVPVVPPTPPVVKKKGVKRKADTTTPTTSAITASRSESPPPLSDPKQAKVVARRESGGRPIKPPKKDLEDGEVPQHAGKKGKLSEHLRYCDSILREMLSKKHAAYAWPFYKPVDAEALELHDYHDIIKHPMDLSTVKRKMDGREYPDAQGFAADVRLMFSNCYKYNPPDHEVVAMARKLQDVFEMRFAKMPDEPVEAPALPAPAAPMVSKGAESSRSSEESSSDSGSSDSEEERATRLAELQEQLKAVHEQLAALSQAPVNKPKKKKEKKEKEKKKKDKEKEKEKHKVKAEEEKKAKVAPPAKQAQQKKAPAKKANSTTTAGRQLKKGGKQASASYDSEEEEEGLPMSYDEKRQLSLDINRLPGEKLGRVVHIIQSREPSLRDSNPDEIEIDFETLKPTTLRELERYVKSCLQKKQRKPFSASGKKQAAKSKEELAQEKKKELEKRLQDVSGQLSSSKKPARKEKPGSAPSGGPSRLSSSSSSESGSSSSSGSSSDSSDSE
Sequence of Bromodomain-containing protein 2 (P25440 whole entry, the tested form may be a part): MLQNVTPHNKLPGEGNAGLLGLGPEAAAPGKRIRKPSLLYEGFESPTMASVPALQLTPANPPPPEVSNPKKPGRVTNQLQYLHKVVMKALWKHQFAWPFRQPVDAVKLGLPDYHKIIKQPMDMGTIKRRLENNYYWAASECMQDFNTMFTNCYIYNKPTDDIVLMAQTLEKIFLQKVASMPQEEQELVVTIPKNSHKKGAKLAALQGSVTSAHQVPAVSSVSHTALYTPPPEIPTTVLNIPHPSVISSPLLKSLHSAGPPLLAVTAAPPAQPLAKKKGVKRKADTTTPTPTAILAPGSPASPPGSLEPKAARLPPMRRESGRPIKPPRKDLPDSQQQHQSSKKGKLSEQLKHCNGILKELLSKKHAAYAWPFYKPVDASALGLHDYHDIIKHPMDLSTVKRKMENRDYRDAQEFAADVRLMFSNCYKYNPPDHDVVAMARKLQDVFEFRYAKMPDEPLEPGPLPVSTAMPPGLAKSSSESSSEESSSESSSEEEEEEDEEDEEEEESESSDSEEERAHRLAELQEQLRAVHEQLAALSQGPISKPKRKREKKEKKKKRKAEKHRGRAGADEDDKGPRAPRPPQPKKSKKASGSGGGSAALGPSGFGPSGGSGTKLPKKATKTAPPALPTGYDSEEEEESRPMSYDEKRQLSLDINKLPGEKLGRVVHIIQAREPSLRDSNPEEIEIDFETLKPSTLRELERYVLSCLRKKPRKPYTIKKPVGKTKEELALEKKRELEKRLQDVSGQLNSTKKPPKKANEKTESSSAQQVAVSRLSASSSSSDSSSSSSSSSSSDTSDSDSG

The term IC50 denotes the point on the concentration scale where inhibition reaches its midpoint. For the molecule `COc1ncccc1-n1nc(C)c2c1C(c1ccc(Cl)cc1)N(c1cc(C)c(=O)n(C)c1)C2=O` (stereo unspecified), the IC50 on CREB-binding protein was 4000 nM; in assay [1], 78 nM; in assay [2], 86 nM.
Take `CCOc1ncccc1-n1nc(C)c2c1C(c1ccc(Cl)cc1)N(c1cc(C)c(=O)n(C)c1)C2=O` (stereo unspecified): the IC50 at CREB-binding protein worked out at 3100 nM; in assay [3] it was 62 nM; in assay [2] it was 79 nM.
